The structures appear in SMILES notation. Where two headings read alike, the source gives them in different places.

In one data set the test system is rats. The following applies: cited from earlier work.
The subject of the next data set is mice. The following applies: cited from earlier work.
Data set [1] deals with T1, iNOS (Homo sapiens, UniProt P35228). As to conditions: in words; cited from earlier work.
The target in data set [2] is T1, iNOS. The data set can be described thus: abcam NOS Inhibitor Screening Kit, IC50 (fluorescence). Type of data set: biochemical. The following applies: ratio of IC50 to AZ 6b IC50 (0.0488 μM). Set-up: Fold (GT-xxxx)/AZ 6b. As to the method: (§1) The IC50 of some compounds of the invention was determined using the abcam NOS Inhibitor Screening Kit. The procedure includes the following steps: (1) Dissolved a test compound to 10 mM in DMSO; (2) Diluted the test compound to 1 mM in NOS Assay Buffer; (3) Diluted 1 mM of the test compound stocks to 200 μM, 50 μM, 12.5 μM, 3.125 μM, 0.781 μM, and 0.195 μM in NOS Assay Buffer; (4) Diluted 1 mM DPI Control to 50.0 μM, 12.5 μM, 3.125 μM, 0.781 μM, 0.195 μM, and 0.0488 μM in NOS Assay Buffer; (5) Diluted NOS enzyme with 400 μL of NOS Assay Buffer; (6) Combined Diluted NOS Enzyme with 1.6 mL of NOS Assay buffer then transferred 20 μL of enzyme solution to all wells of 96-well Fluorescence plate except background wells. Added 20 μL of NOS Assay buffer to background wells. (7) Transferred 10 uL of each test compound dilution to the enzyme buffer mix according to the plate map (see addendum for plate map and raw data values). (8) Incubated 15 minutes at room temperature. (9) Added 11 μL of NOS reaction mix (according to manufacturer's protocol) to each well, mixed, and incubated at 37° C. for 1 hour. (10) Added 110 μL of NOS Assay Buffer to each well followed by 5 μL of Enhancer to each well, mixed, and incubated 10 minutes at room temperature; (11) Added 10 μL of Probe to each well, mixed, and incubated 10 minutes at room temperature; and (12) Added 5 μL of NaOH to each well, mixed, and incubated 10 minutes at room temperature. Measure Fluorescence at 360 nm excitation/450 nm emission.

The target in data set [3] is T1, iNOS. The description is as above. Format: biochemical. Set-up: IC50; IC50. As to conditions: abcam NOS Inhibitor Screening Kit. As for the experimental part:
as §1

Data set [4] addresses T1, iNOS. The description is as above. Set-up: IC50. Format: biochemical. As to the method: as §1, with “(10) Added 110 μL of NOS Assay Buffer to each well followed by 5 μL of Enhancer to each well, mixed, and incubated 10 minutes at room temperature; (11) Added 10 μL of Probe to each well, mixed, and incubated 10 minutes at room temperature; and (12) Added 5 μL of NaOH to each well, mixed, and incubated 10 minutes at room temperature.” left out

T1 sequence (P35228 whole entry): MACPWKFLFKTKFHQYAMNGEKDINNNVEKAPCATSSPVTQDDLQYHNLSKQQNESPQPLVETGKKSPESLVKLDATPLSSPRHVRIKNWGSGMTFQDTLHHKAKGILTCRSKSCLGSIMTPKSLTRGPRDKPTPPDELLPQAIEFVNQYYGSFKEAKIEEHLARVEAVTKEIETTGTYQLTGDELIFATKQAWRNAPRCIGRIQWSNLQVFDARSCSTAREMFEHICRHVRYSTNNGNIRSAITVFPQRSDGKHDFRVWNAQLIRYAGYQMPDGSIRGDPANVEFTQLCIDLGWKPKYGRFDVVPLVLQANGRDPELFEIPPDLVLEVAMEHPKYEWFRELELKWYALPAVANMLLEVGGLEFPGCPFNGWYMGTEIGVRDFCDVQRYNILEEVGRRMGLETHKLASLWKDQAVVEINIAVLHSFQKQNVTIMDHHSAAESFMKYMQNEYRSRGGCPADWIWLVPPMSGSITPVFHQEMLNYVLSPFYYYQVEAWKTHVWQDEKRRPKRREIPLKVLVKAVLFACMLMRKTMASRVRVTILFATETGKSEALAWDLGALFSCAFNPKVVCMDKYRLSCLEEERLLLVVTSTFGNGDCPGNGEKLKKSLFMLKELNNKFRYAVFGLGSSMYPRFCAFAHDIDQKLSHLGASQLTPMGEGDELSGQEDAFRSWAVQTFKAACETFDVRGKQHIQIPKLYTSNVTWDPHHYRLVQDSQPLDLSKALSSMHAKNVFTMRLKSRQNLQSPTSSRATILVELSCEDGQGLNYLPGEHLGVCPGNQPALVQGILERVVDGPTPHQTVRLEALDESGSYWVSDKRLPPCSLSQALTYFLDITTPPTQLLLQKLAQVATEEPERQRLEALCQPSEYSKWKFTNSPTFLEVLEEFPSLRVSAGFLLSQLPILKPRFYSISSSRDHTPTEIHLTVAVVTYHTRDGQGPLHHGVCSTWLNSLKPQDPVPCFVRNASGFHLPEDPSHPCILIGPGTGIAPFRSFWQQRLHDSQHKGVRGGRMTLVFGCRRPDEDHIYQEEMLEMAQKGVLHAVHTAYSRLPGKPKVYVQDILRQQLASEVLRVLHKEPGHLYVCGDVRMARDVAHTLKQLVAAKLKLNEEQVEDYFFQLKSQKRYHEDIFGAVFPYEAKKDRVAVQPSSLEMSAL

With `N=C(N)SCCc1ccc(CCSC(=N)N)cc1` [PBIT, S,S′-1,4-phenylene-bis(1,2-ethanediyl)bis-isothiourea], the “acutely toxic at doses as low as” value with rats and in the data set on mice was 10 mg/kg in each case. Besides, the “selectivity of inhibition iNOS to eNOS” value at iNOS [1] is given as “does not exhibit necessary selectivity”.
For the molecule `N#Cc1ccc(Cl)cc1C(=O)N(CCNCC1CC1)c1ccccc1` [GT-7019, 5-chloro-2-cyano-N-(2-((cyclopropylmethyl)amino)ethyl)-N-phenyl benzamide], on iNOS [2], the “Fold (GT-xxxx)/AZ 6b” value stood at 8.98. Moreover, the IC50 at iNOS [3] (Table C-1) and against iNOS [3] (Table C-2) was 438 nM in each case.
`N#Cc1ccc(Cl)cc1O[C@H](CCN)c1ccccc1` [AZ 6b, (R)-2-(3-amino-1-phenylpropoxy)-4-chlorobenzonitrile, reference compound] gave a concentration for half-maximal inhibition (IC50) against iNOS [4] of 48.8 nM.
Take `NCC[C@@H](Oc1cc(Cl)cc2[nH]ncc12)c1ccccc1` [GT-6045]: the “Fold (GT-xxxx)/AZ 6b” value on iNOS [2] is recorded as 4.73. Further, the IC50 at iNOS [3] (Table C-1) and at iNOS [3] (Table C-2) was 231 nM throughout.
Consider `CNCC[C@@H](Oc1cc(Cl)cc2[nH]ncc12)c1ccccc1` [GT-6059, (R)-3-((6-chloro-1H-indazol-4-yl)oxy)-N-methyl-3-phenylpropan-1-amine], for which the “Fold (GT-xxxx)/AZ 6b” value on iNOS [2] amounted to 5.16. In addition, the IC50 at iNOS [3] (Table C-1) and at iNOS [3] (Table C-2) was 252 nM in each case.
Take `OCCNCC[C@@H](Oc1cc(Cl)cc2[nH]cnc12)c1ccccc1` [GT-6060, (R)-2-((3-((6-chloro-1H-benzo[d]imidazol-4-yl)oxy)-3-phenylpropyl)amino)ethan-1-ol]: the “Fold (GT-xxxx)/AZ 6b” value on iNOS [2] amounted to 9.10. In addition, the concentration for half-maximal inhibition (IC50) on iNOS [3] (Table C-1) and against iNOS [3] (Table C-2) was 444 nM each time.

The IC50 is the concentration needed to halve the response being measured. High values mean lower potency, low ones higher potency.

Values taken from patent US12325681B2, “Inhibitors of nitric oxide synthases (NOS), pharmaceutical products thereof, and methods thereof” (Gacter Inc., priority 2022, dated 2025).
